This assay deals with human orexin-2 receptor (Homo sapiens (Human), UniProt O43614). Description: Human orexin 2 receptor radioligand binding ([3H]-EMPA competition). The settings on record: HEK293 cells stably expressing human orexin-2 receptor; [3H]-EMPA 5 nM final; apparent Ki=IC50/(1+C/Kd), Kd=2 nM; read-out: OR 2 Ki.
human orexin-2 receptor, sequence (O43614 whole entry): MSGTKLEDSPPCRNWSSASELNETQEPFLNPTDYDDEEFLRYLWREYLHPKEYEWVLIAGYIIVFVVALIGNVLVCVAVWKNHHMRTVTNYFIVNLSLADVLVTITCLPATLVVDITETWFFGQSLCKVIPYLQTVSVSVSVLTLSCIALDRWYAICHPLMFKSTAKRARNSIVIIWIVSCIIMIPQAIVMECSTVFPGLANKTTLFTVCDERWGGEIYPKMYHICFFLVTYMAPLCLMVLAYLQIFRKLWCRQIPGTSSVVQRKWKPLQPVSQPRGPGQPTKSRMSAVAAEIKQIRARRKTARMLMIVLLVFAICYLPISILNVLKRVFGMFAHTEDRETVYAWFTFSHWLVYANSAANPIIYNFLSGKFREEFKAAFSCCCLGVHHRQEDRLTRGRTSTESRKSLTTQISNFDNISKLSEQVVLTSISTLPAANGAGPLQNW
As for `Cc1nc(N2CC3CN(C(=O)c4ccccc4-c4ncn(C)n4)CC3C2)ncc1F` (stereo not drawn) [Example 312, 2-(5-Fluoro-4-methylpyrimidin-2-yl)-5-{[2-(1-methyl-1H-1,2,4-triazol-3-yl)phenyl]carbonyl}octahydropyrrolo[3,4-c]pyrrole], the Ki turned out to be 79 nM. For `Cc1ccnc(N2CC3CN(C(=O)c4ccccc4-c4cccs4)CC3C2)c1` (stereo not drawn) [Example 136, 2-(4-Methylpyridin-2-yl)-5-[(2-thiophen-2-ylphenyl)carbonyl]octahydropyrrolo[3,4-c]pyrrole], the Ki turned out to be 104 nM. Next, `COc1cc(OC)nc(N2CC3CN(C(=O)c4ccccc4-c4cccs4)CC3C2)n1` (stereo not drawn) [Example 138, 2-(4,6-Dimethoxypyrimidin-2-yl)-5-[(2-thiophen-2-ylphenyl)carbonyl]octahydro pyrrolo[3,4-c]pyrrole]: 30 nM; `Cc1noc(-c2ccccc2C(=O)N2CC3CN(c4nc(C)c(C)c(C)n4)CC3C2)n1` (stereo not drawn) [Example 309, 2-{[2-(3-Methyl-1,2,4-oxadiazol-5-yl)phenyl]carbonyl}-5-(4,5,6-trimethylpyrimidin-2-yl)octahydropyrrolo[3,4-c]pyrrole]: 7 nM. On to `COc1ccc(C(=O)N2CC3CN(c4nccc(OC)n4)CC3C2)c(OC)c1` (stereo not drawn) [Example 179, (2,4-Dimethoxy-phenyl)-[5-(4-methoxy-pyrimidin-2-yl)-hexahydro-pyrrolo[3,4-c]pyrrol-2-yl]-methanone], for which the Ki was found to be 9000 nM. Next, `CN(C)c1cc(N2CC3CN(C(=O)c4c(F)cccc4-n4nccn4)CC3C2)nc(C(F)(F)F)n1` (stereo not drawn) [Example 3, 6-[5-{[2-Fluoro-6-(2H-1,2,3-triazol-2-yl)phenyl]carbonyl}hexahydropyrrolo[3,4-c]pyrrol-2(1H)-yl]-N,N-dimethyl-2-(trifluoromethyl)pyrimidin-4-amine]: 42 nM. Next, `Cc1cc(C)nc(N2CC3CN(C(=O)c4cccc(F)c4-c4ncccc4C)CC3C2)n1` (stereo not drawn) [Example 371, (5-(4,6-Dimethylpyrimidin-2-yl)hexahydropyrrolo[3,4-c]pyrrol-2(1H)-yl)(3-fluoro-2-(3-methylpyridin-2-yl)phenyl)methanone]: 3400 nM; `Cc1cc(C)nc(N2CC3CN(C(=O)c4ccccc4-c4cccs4)CC3C2)n1` (stereo not drawn) [Example 43, 2-(4,6-Dimethylpyrimidin-2-yl)-5-[(2-thiophen-2-ylphenyl)carbonyl]octahydro-pyrrolo[3,4-c]pyrrole]: 7 nM. Next, `COc1ccnc(N2CC3CN(C(=O)c4c(OC)ccc5ccccc45)CC3C2)n1` (stereo not drawn) [Example 60, 2-[(2-Methoxynaphthalen-1-yl)carbonyl]-5-(4-methoxypyrimidin-2-yl)octahydropyrrolo[3,4-c]pyrrole]: 173 nM; `Cc1cc(C)nc(N2CC3CN(C(=O)c4cccc(F)c4-c4ccn[nH]4)CC3C2)n1` (stereo not drawn) [Example 284, 2-(4,6-Dimethylpyrimidin-2-yl)-5-{[3-fluoro-2-(1H-pyrazol-5-yl)phenyl]carbonyl}octahydropyrrolo[3,4-c]pyrrole]: 8 nM; `COc1ccc(-n2nccn2)c(C(=O)N2CC3CN(c4nc(C)c(C)c(C)n4)CC3C2)c1` (stereo not drawn) [Example 241, (5-Methoxy-2-(2H-1,2,3-triazol-2-yl)phenyl)(5-(4,5,6-trimethylpyrimidin-2-yl)hexahydropyrrolo[3,4-c]pyrrol-2(1H)-yl)methanone]: 17 nM.

For `Cc1cc(C)nc(N2CC3CN(C(=O)c4cccc5cccc(-n6nccn6)c45)CC3C2)n1` (stereo not drawn) [Example 328, [5-(4,6-Dimethyl-pyrimidin-2-yl)-hexahydro-pyrrolo[3,4-c]pyrrol-2-yl]-(8-[1,2,3]triazol-2-yl-naphthalen-1-yl)-methanone], the Ki was 112 nM. Next, `Cc1ccc(C)c(C(=O)N2CC3CN(c4nc(C)cc(C)n4)CC3C2)c1` (stereo not drawn) [Example 224, 2-[(2,5-Dimethylphenyl)carbonyl]-5-(4,6-dimethylpyrimidin-2-yl)octahydropyrrolo[3,4-c]pyrrole]: 635 nM; `Cc1cc(C(C)C)nc(N2CC3CN(C(=O)c4cc(C(C)C)ccc4-n4nccn4)CC3C2)n1` (stereo not drawn) [Example 300, 2-{[5-(1-Methylethyl)-2-(2H-1,2,3-triazol-2-yl)phenyl]carbonyl}-5-[4-methyl-6-(1-methylethyl)pyrimidin-2-yl]octahydropyrrolo[3,4-c]pyrrole]: 290 nM. Next, `Cc1ccc(-c2ccccc2C(=O)N2CC3CN(c4nccc(-c5ccccc5)n4)CC3C2)cc1` (stereo not drawn) [Example 195, (4′-Methyl-biphenyl-2-yl)-[5-(4-phenyl-pyrimidin-2-yl)-hexahydro-pyrrolo[3,4-c]pyrrol-2-yl]-methanone]: 1100 nM; `O=C(c1ccccc1-c1ccccc1)N1CC2CN(c3nc4ccccc4o3)CC2C1` (stereo not drawn) [Example 184, (5-Benzooxazol-2-yl-hexahydro-pyrrolo[3,4-c]pyrrol-2-yl)-biphenyl-2-yl-methanone]: 1040 nM; `Cc1cc(C)nc(N2CC3CN(C(=O)c4cc(F)ccc4-c4ncccn4)CC3C2)n1` (stereo not drawn) [Example 74, 2-(4,6-Dimethylpyrimidin-2-yl)-5-[(5-fluoro-2-pyrimidin-2-ylphenyl)carbonyl]octahydropyrrolo[3,4-c]pyrrole]: 14 nM. Under `CN(C)c1cc(N2CC3CN(C(=O)c4ccc(F)cc4-n4nccn4)CC3C2)nc(C(F)(F)F)n1` (stereo not drawn) [Example 6, 6-[5-{[4-Fluoro-2-(2H-1,2,3-triazol-2-yl)phenyl]carbonyl}hexahydropyrrolo[3,4-c]pyrrol-2(1H)-yl]-N,N-dimethyl-2-(trifluoromethyl)pyrimidin-4-amine] stands 67 nM. Consider `O=C(c1ccccc1-n1cccc1)N1CC2CN(c3nccc(-c4ccccc4)n3)CC2C1` (stereo not drawn) [Example 24, 2-(4-Phenylpyrimidin-2-yl)-5-{[2-(1H-pyrrol-1-yl)phenyl]carbonyl}octahydro-pyrrolo[3,4-c]pyrrole], for which the Ki was 415 nM. `Cc1ccnc(N2CC3CN(C(=O)c4ccccc4-c4ccccc4)CC3C2)n1` (stereo not drawn) [Example 174, 2-(Biphenyl-2-ylcarbonyl)-5-(4-methylpyrimidin-2-yl)octahydropyrrolo[3,4-c]pyrrole]: the Ki was determined as 729 nM. Next, `O=C(c1ccccc1-c1ccccc1)N1CC2CN(c3nc4ccc(Cl)cc4s3)CC2C1` (stereo not drawn) [Example 190, Biphenyl-2-yl-[5-(6-chloro-benzothiazol-2-yl)-hexahydro-pyrrolo[3,4-c]pyrrol-2-yl]-methanone]: 1300 nM; `COc1ccnc(N2CC3CN(C(=O)c4ccc(F)cc4-n4nccn4)CC3C2)n1` (stereo not drawn) [Example 159, 2-{[4-Fluoro-2-(2H-1,2,3-triazol-2-yl)phenyl]carbonyl}-5-(4-methoxypyrimidin-2-yl)octahydropyrrolo[3,4-c]pyrrole]: 45 nM; `Cc1cc(N2CC3CN(C(=O)c4ccccc4-n4nccn4)CC3C2)nc(C(C)C)n1` (stereo not drawn) [Example 81, [5-(2-Isopropyl-6-methyl-pyrimidin-4-yl)-hexahydro-pyrrolo[3,4-c]pyrrol-2-yl]-(2-[1,2,3]triazol-2-yl-phenyl)-methanone]: 1220 nM.

In the case of `O=C(c1ccccc1Br)N1CC2CN(c3cnc4ccccc4n3)CC2C1` (stereo not drawn) [Example 42, 2-{5-[(2-Bromophenyl)carbonyl]hexahydropyrrolo[3,4-c]pyrrol-2(1H)-yl}quinoxaline], the Ki was found to be 616 nM.

Source of the values: patent publication US8653263B2 (Janssen Pharmaceutica, priority 2009, dated 2014).
